Source: patent publication US8664206B2, “Diastereomers of 2-methylene-19-nor-22-methyl-1α,25-dihydroxyvitamin D3” (Wisconsin Alumni Research Foundation, priority 2010, dated 2014)
“Also recorded” adds a separate entry of the source.

Tests used:
[1] = tested on: 24-hydroxylase (24OHase) gene promoter; assay: In vitro transcription assay (24-hydroxylase promoter-luciferase in ROS 17/2.8 bone cells); type: cell-based, rat; details: for EC50: Rattus norvegicus; for 24OHase Transcription Relative Activity: relative to the native hormone 1,25(OH)2D3 in the same assay, (value for native hormone)/(value for working example), >1 = more active
Procedure: Transcription activity was measured in ROS 17/2.8 (bone) cells that were stably transfected with a 24-hydroxylase (24OHase) gene promoter upstream of a luciferase reporter gene (Arbour et al., 1998). Cells were given a range of doses. Sixteen hours after dosing the cells were harvested and luciferase activities were measured using a luminometer. RLU=relative luciferase units.

[2] = tested on: HL-60 cells; assay: HL-60 differentiation (nitro blue tetrazolium reduction); type: cell-based, human; details: for HL-60 cell differentiation, times more potent than the native hormone: fold MORE potent/active than 1,25(OH)2D3; for EC50: Homo sapiens, HL-60; for HL-60 Differentiation Relative Activity: relative to the native hormone 1,25(OH)2D3 in the same assay, (value for native hormone)/(value for working example), >1 = more active
Procedure: The study drugs were dissolved in ethanol and the concentrations determined using UV spectrophotometry. Serial dilutions were prepared so that a range of drug concentrations could be tested without changing the final concentration of ethanol (≦0.2%) present in the cell cultures.
Human promyelocytic leukemia (HL60) cells were grown in RPMI-1640 medium containing 10% fetal bovine serum. The cells were incubated at 37° C. in the presence of 5% CO2.
HL60 cells were plated at 1.2×10^5 cells/ml. Eighteen hours after plating, cells in duplicate were treated with drug. Four days later, the cells were harvested and a nitro blue tetrazolium reduction assay was performed (Collins et al., 1979; J. Exp. Med. 149:969-974). The percentage of differentiated cells was determined by counting a total of 200 cells and recording the number that contained intracellular black-blue formazan deposits. Verification of differentiation to monocytic cells was determined by measuring phagocytic activity (data not shown).

[3] = tested on: Sprague-Dawley rats; assay: Bone calcium mobilization (serum calcium); type: in vivo, rat; details: for bone calcium mobilization activity compared with 1,25(OH)2D3 (in words): intraperitoneal doses
Procedure: (§1) Male, weanling Sprague-Dawley rats were placed on Diet 11 (0.47% Ca) diet+AEK oil for one week followed by Diet 11 (0.02% Ca)+AEK oil for 3 weeks. The rats were then switched to a diet containing 0.47% Ca for one week followed by two weeks on a diet containing 0.02% Ca. Dose administration began during the last week on 0.02% calcium diet. Four consecutive intraperitoneal doses were given approximately 24 hours apart. Twenty-four hours after the last dose, blood was collected from the severed neck and the concentration of serum calcium determined as a measure of bone calcium mobilization. The first 10 cm of the intestine was also collected for intestinal calcium transport analysis using the everted gut sac method.

[4] = tested on: Sprague-Dawley rats; assay: Intestinal calcium transport (everted gut sac method); type: in vivo, rat; details: for net intestinal calcium transport, serosal to mucosal ratio / intestinal calcium transport activity compared with 1,25(OH)2D3 (in words): rat; for net intestinal calcium transport, serosal to mucosal ratio: relative to vehicle; for intestinal calcium transport activity compared with 1,25(OH)2D3 (in words): intraperitoneal doses
Procedure: as §1

[5] = target: T1, vitamin D receptor (full-length recombinant rat receptor) (Rattus norvegicus, UniProt P13053); assay: Vitamin D receptor competitive binding; details: for binding to the nuclear vitamin D receptor compared with 1,25(OH)2D3 (in words): competitive binding against 3H-1,25(OH)2D3, recombinant rat receptor; for Ki: read-out: Competitive VDR Binding (Ki)
T1 construct: Full-length recombinant rat receptor was expressed in E. coli; His tag (C); made in house; host or cells: E. coli BL21(DE3) Codon Plus RIL
T1 sequence (P13053 1-423): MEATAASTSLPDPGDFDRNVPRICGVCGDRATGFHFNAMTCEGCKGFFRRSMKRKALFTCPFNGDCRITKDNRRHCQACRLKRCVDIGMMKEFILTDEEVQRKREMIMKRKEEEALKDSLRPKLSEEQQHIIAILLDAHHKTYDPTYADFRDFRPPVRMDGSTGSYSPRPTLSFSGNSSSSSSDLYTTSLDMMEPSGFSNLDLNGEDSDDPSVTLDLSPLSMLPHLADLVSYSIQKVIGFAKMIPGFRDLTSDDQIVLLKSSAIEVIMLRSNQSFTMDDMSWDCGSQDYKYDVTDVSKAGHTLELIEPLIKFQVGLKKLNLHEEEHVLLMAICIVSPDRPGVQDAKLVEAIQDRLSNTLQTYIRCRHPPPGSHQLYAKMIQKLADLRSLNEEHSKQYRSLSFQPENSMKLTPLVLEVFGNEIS
Procedure: Full-length recombinant rat receptor was expressed in E. coli BL21(DE3) Codon Plus RIL cells and purified to homogeneity using two different column chromatography systems. The first system was a nickel affinity resin that utilizes the C-terminal histidine tag on this protein. The protein that was eluted from this resin was further purified using ion exchange chromatography (S-Sepharose Fast Flow). Aliquots of the purified protein were quick frozen in liquid nitrogen and stored at −80° C. until use. For use in binding assays, the protein was diluted in TEDK50 (50 mM Tris, 1.5 mM EDTA, pH 7.4, 5 mM DTT, 150 mM KCl) with 0.1% Chaps detergent. The receptor protein and ligand concentration was optimized such that no more than 20% of the added radiolabeled ligand was bound to the receptor.
Unlabeled ligands were dissolved in ethanol and the concentrations determined using UV spectrophotometry (1,25(OH)2D3: molar extinction coefficient=18,200 and λmax=265 nm; Analogs: molar extinction coefficient=42,000 and λmax=252 nm). Radiolabeled ligand (^3H-1,25(OH)2D3, ˜159 Ci/mmole) was added in ethanol at a final concentration of 1 nM.
Radiolabeled and unlabeled ligands were added to 100 mcl of the diluted protein at a final ethanol concentration of ≦10%, mixed and incubated overnight on ice to reach binding equilibrium. The following day, 100 mcl of hydroxylapatite slurry (50%) was added to each tube and mixed at 10-minute intervals for 30 minutes. The hydroxylapatite was collected by centrifugation and then washed three times with Tris-EDTA buffer (50 mM Tris, 1.5 mM EDTA, pH 7.4) containing 0.5% Titron X-100. After the final wash, the pellets were transferred to scintillation vials containing 4 ml of Biosafe II scintillation cocktail, mixed and placed in a scintillation counter. Total binding was determined from the tubes containing only radiolabeled ligand.

C=C1C(O)CC(=CC=C2CCCC3(C)C2CCC3[C@H](C)[C@H](C)CCC(C)(C)O)CC1O (stereo partly drawn) [SAG-2, (20R,22R)-2-methylene-19-nor-22-methyl-1α,25-dihydroxyvitamin D3]
24-hydroxylase transcription activity compared with 1,25(OH)2D3 (in words) ([1]; bone cells): unexpectedly low in comparison to the native hormone

C=C1C(O)CC(=CC=C2CCCC3(C)C2CCC3[C@@H](C)CCCC(C)(C)O)CC1O (single isomer, unassigned) [20R isomer of 2MD, 2-methylene-19-nor-1α,25-dihydroxyvitamin D3, reference compound]
HL-60 cell differentiation, times more potent than the native hormone [2]: 0.95 times
net bone calcium mobilization activity ([3]; rat): 4.5 mg/dL
net intestinal calcium transport, serosal to mucosal ratio [4]: −0.6

C=C1C(O)CC(=CC=C2CCCC3(C)C2CCC3[C@@H](C)CCCC(C)(C)O)CC1O (single isomer, unassigned) [20S isomer of 2MD, 2-methylene-19-nor-1α,25-dihydroxyvitamin D3, reference compound]
HL-60 cell differentiation, times more potent than the native hormone [2]: 27 times
net bone calcium mobilization activity ([3]; rat): 9.3 mg/dL
net intestinal calcium transport, serosal to mucosal ratio [4]: −0.9

C=C1[C@H](O)CC(=C/C=C2\CCC[C@@]3(C)C2CC[C@@H]3[C@H](C)[C@H](C)CCC(C)(C)O)C[C@H]1O (stereo partly drawn) [SAG-2, (20R,22R)-2-methylene-19-nor-22-methyl-1α,25-dihydroxyvitamin D3]
binding to the nuclear vitamin D receptor compared with 1,25(OH)2D3 (in words) [5]: less effective than 1,25-(OH)2D3; also recorded: bind the vitamin D receptor
affinity for the nuclear vitamin D receptor, times less than 1,25(OH)2D3 ([5]; competitive binding, fold LESS affinity than native hormone): approximately 4 times
Ki [5]: 200 pM
EC50 [2]: 9000 pM
HL-60 Differentiation Relative Activity [2]: 0.3
EC50 [1]: 6000 pM
24OHase Transcription Relative Activity [1]: 0.05
Net Bone Ca2+ Mobilization ([3]; at 260 pM dosage): −0.1^7 mg/dL
bone calcium mobilization activity compared with 1,25(OH)2D3 (in words) ([3]; rat): markedly lower than 1,25-(OH)2D3; also recorded: no net calcemic activity on bone; also recorded: very little to no activity in mobilizing calcium from bone stores; also recorded: little or no ability to mobilize bone calcium, even at extremely high concentrations
Net Intestinal Ca2+ Transport (serosal Ca2+ to mucosal Ca2+ ratio, S/M) ([4]; at 260 pM dosage): 0.4^7
intestinal calcium transport activity compared with 1,25(OH)2D3 (in words) [4]: markedly lower than 1,25-(OH)2D3; also recorded: less potency compared to the native hormone; also recorded: little ability to increase transport, except at extremely high concentrations

C=C1[C@H](O)CC(=C/C=C2\CCC[C@@]3(C)C2CC[C@@H]3[C@H](C)[C@@H](C)CCC(C)(C)O)C[C@H]1O (stereo partly drawn) [SAG-1, (20R,22S)-2-methylene-19-nor-22-methyl-1α,25-dihydroxyvitamin D3]
binding to the nuclear vitamin D receptor compared with 1,25(OH)2D3 (in words) [5]: bind the vitamin D receptor
Ki [5]: 90 pM
cell differentiation activity (in words) [2]: relatively high cell differentiation activity
EC50 [2]: 600 pM
HL-60 Differentiation Relative Activity [2]: 3.3
EC50 [1]: 300 pM
24-hydroxylase transcription activity compared with 1,25(OH)2D3 (in words) ([1]; bone cells): approximately equal in potency to 1,25(OH)2D3
24OHase Transcription Relative Activity [1]: 10
Net Bone Ca2+ Mobilization ([3]; at 260 pM dosage): 0.3^7 mg/dL
bone calcium mobilization activity compared with 1,25(OH)2D3 (in words) ([3]; rat): less potent than 1,25-(OH)2D3; also recorded: no net calcemic activity on bone; also recorded: less potent than the native hormone; also recorded: little or no ability to mobilize bone calcium except at extremely high doses
Net Intestinal Ca2+ Transport (serosal Ca2+ to mucosal Ca2+ ratio, S/M) ([4]; at 260 pM dosage): 1.3^7
intestinal calcium transport activity compared with 1,25(OH)2D3 (in words) [4]: comparable or reduced potency in comparison to 1,25(OH)2D3 at lower concentrations but increased potency in comparison to 1,25(OH)2D3 at high concentrations

C=C1[C@H](O)CC(=C/C=C2\CCC[C@@]3(C)C2CC[C@@H]3[C@@H](C)[C@H](C)CCC(C)(C)O)C[C@H]1O (stereo partly drawn) [AGS-1, (20S,22R)-2-methylene-19-nor-22-methyl-1α,25-dihydroxyvitamin D3]
binding to the nuclear vitamin D receptor compared with 1,25(OH)2D3 (in words) [5]: approximately equally effective as 1,25-(OH)2D3; also recorded: same affinity as 1,25(OH)2D3; also recorded: bind the vitamin D receptor
Ki [5]: 70 pM
cell differentiation activity (in words) [2]: relatively high cell differentiation activity
EC50 [2]: 10 pM
HL-60 Differentiation Relative Activity [2]: 300
EC50 [1]: 8 pM
24-hydroxylase transcription activity compared with 1,25(OH)2D3 (in words) ([1]; bone cells): relatively high 24-hydroxylase transcription activity
transcription of the 24-hydroxylase gene, times more potent than 1,25(OH)2D3 ([1]; bone cells, fold MORE potent): ~40 times
24OHase Transcription Relative Activity [1]: 38
Net Bone Ca2+ Mobilization ([3]; at 780 pM dosage): 5.3 mg/dL
bone calcium mobilization activity compared with 1,25(OH)2D3 (in words) ([3]; rat): more potent than 1,25-(OH)2D3; also recorded: does show activity with regard to net bone calcium mobilization; also recorded: more efficacious; also recorded: significantly higher bone calcium mobilization activity
Net Intestinal Ca2+ Transport (serosal Ca2+ to mucosal Ca2+ ratio, S/M) ([4]; at 780 pM dosage): 9.9
intestinal calcium transport activity compared with 1,25(OH)2D3 (in words) [4]: more potent than 1,25-(OH)2D3; also recorded: higher potency in promoting intestinal calcium transport than the native hormone; also recorded: significantly higher
net intestinal calcium transport, serosal to mucosal ratio [4]: 4.3

C=C1[C@H](O)CC(=C/C=C2\CCC[C@@]3(C)C2CC[C@@H]3[C@@H](C)[C@@H](C)CCC(C)(C)O)C[C@H]1O (stereo partly drawn) [AGS-2, (20S,22S)-2-methylene-19-nor-22-methyl-1α,25-dihydroxyvitamin D3]
binding to the nuclear vitamin D receptor compared with 1,25(OH)2D3 (in words) [5]: lower affinity relative to 1,25-(OH)2D3; also recorded: lower affinity than 1,25(OH)2D3; also recorded: bind the vitamin D receptor
Ki [5]: 8000 pM
cell differentiation activity (in words) [2]: relatively high cell differentiation activity
EC50 [2]: 20000 pM
HL-60 Differentiation Relative Activity [2]: 0.15
EC50 [1]: 3000 pM
24-hydroxylase transcription activity compared with 1,25(OH)2D3 (in words) ([1]; bone cells): relatively high 24-hydroxylase transcription activity
transcription of the 24-hydroxylase gene, times less potent than 1,25(OH)2D3 ([1]; rat osteosarcoma cells, fold LESS potent): about 10 times
24OHase Transcription Relative Activity [1]: 0.1
Net Bone Ca2+ Mobilization ([3]; at 780 pM dosage): 0 mg/dL
bone calcium mobilization activity compared with 1,25(OH)2D3 (in words) ([3]; rat): much reduced ability to mobilize calcium from bone compared to 1,25-(OH)2D3; also recorded: no net calcemic activity on bone; also recorded: essentially no ability to mobilize bone calcium except at extremely high concentrations
bone calcium mobilization, times less potent than the native hormone ([3]; rat, fold LESS potent in releasing bone calcium stores): approximately 50 times
Net Intestinal Ca2+ Transport (serosal Ca2+ to mucosal Ca2+ ratio, S/M) ([4]; at 780 pM dosage): 4.3
intestinal calcium transport activity compared with 1,25(OH)2D3 (in words) [4]: significant net intestinal calcium transport; also recorded: comparable or slightly higher intestinal calcium transport compared to 1,25(OH)2D3
